Test results published in patent US20240262826A1, “WILD TYPE KIT INHIBITORS” (Blueprint Medicines Corporation, priority 2022, published 2024).

Target: wild type c-kit (Homo sapiens (Human), UniProt P10721)
Experiment: PathScan phospho c-kit (Tyr719) sandwich ELISA in SCF-stimulated M-07e cells (pKIT assay)
Format: cell-based
Settings: ELISA assay (values not marked *)
Excerpt: The ability of compounds of the disclosure (described herein as test compounds) to inhibit autophosphorylation of wild type c-kit was measures using either a PathScan phospho c-kit (Tyr719) sandwich ELISA (CST #7298) or a Phospho c-Kit (Tyr721) Assay Whole Cell Lysate Kit (MSD: 515DPD/catalog number K15119D-2).
For the PathScan phospho c-kit (Tyr719) sandwich ELISA: M-07e cells were resuspended at 2×10^6 cells/mL in phenol red free, serum-free, GM-CSF-free Iscove's Modified Dulbecco's Medium (IMDM) media with 1% Penicillin-Streptomycin. The cells were then dispensed into the wells of a U-bottom, 96-well plate at 50 uL per well using a multichannel pipet. The plate was allowed to incubate at 37° C. in a humidified tissue culture incubator for 4 hours.
After 4 hours of incubation, each well was dosed with 6.25 uL of test compound at a final DMSO concentration of 0.25% for 60 min at 37° C. to generate an 8-point dose concentration series of test compounds in duplicate. Cells were then incubated for 1 hour at 37° C. in a humidified tissue culture incubator. Next, human SCF at 500 ng/mL was added to the appropriate wells at 6.25 uL/well and the plate was shaken at 450 rpm at room temperature for 10 minutes. AlphaLISA 5× Lysis Buffer supplemented with 1× protease and phosphatase inhibitor was then added at 16 uL/well. The plate was sealed with an adherent cover and shaken at 4° C. at 600 rpm for 30 minutes. After this period of lysis, the plate was stored at −80° C.
When the 96-well plate containing M07e lysates was ready to be processed, the plate was brought to room temperature and 40 μl from each well was transferred to the wells of a PathScan Phospho-c-Kit (Tyr719) Sandwich ELISA plate (CST, Catalog #7298). The ELISA plate was sealed with an adherent cover and incubated for 2 hours at 37° C. Next, the wells were washed 4 times with the provided 1× Wash Buffer, and 100 uL/well of reconstituted Detection Antibody was added to each well, the plate sealed with an adherent cover, and incubated at 37° C. for 1 hour. The wash procedure was repeated and 100 uL/well of reconstituted HRP-Linked secondary antibody was added. The plate was sealed with an adherent cover and incubated at 37° C. for 1 hour. The wash procedure was repeated and 100 uL/well of TMB Substrate was added. The plate was incubated for 10 minutes at room temperature or until the positive reaction elicited a blue color in the appropriate wells. 100 uL/well of STOP solution was added and shaken gently for a few seconds a microplate reader or conventional spectrophotometer e.g., a Perkin Elmer Envision multimode plate reader, part #2105-0010.
An IC50 was calculated using a 4-parameter logistic nonlinear regression.

wild type c-kit, sequence (P10721 26-976): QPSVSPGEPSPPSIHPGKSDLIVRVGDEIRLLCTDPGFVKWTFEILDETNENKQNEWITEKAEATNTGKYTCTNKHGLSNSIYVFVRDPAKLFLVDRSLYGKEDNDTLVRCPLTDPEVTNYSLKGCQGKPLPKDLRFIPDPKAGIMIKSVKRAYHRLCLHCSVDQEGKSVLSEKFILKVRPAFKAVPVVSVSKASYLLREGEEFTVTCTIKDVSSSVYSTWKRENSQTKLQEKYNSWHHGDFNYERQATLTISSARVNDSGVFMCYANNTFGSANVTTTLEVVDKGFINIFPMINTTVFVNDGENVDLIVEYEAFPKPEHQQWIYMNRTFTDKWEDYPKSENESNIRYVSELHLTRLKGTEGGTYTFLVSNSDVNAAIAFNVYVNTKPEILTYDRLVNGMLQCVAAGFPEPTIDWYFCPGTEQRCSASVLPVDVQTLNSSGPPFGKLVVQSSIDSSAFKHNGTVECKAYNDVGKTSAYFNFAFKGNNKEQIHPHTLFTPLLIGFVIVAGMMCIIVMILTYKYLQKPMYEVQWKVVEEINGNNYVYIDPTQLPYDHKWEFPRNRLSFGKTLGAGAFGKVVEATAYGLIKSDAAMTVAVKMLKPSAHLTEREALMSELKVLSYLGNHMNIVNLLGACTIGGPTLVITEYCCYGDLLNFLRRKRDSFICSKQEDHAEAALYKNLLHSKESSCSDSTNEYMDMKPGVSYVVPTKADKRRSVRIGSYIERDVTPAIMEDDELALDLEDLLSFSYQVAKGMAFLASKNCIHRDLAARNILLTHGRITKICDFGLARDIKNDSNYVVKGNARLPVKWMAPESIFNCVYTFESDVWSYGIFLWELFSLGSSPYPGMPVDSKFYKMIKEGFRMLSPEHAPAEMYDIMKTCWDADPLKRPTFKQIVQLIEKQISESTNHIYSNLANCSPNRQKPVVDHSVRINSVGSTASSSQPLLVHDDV

| SMILES | IC50 |
| --- | --- |
| COCCNc1ccn2ncc(C(=O)Nc3cc(-c4nnn(C5CC(F)(F)C5)n4)c(F)cc3C)c2c1 [Example 105, N-(5-(2-(3,3-difluorocyclobutyl)-2H-tetrazol-5-yl)-4-fluoro-2-methylphenyl)-5-((2-methoxyethyl)amino)pyrazolo[1,5-a]pyridine-3-carboxamide] | 3.5 nM |
| COCCNc1ccn2ncc(C(=O)Nc3cc(-c4nnn(C[C@H]5CC5(F)F)n4)ccc3C)c2c1 (single isomer, unassigned) [Example 124, (R)-N-(5-(2-((2,2-difluorocyclopropyl)methyl)-2H-tetrazol-5-yl)-2-methylphenyl)-5-((2-methoxyethyl)amino)pyrazolo[1,5-a]pyridine-3-carboxamide or (S)-N-(5-(2-((2,2-difluorocyclopropyl)methyl)-2H-tetrazol-5-yl)-2-methylphenyl)-5-((2-methoxyethyl)amino)pyrazolo[1,5-a]pyridine-3-carboxamide] | 1.8 nM |
| CCOC(=O)N1CC(n2nnc(-c3ccc(C)c(NC(=O)c4cnn5ccc(N6CCN(C)CC6)cc45)c3)n2)C1 [Example 76, ethyl 3-(5-(4-methyl-3-(5-(4-methylpiperazin-1-yl)pyrazolo[1,5-a]pyridine-3-carboxamido)phenyl)-2H-tetrazol-2-yl)azetidine-1-carboxylate] | 55.6 nM |
| COC(=O)N1CC(n2nnc(-c3cc(NC(=O)c4cnn5cc(OCCO)ccc45)c(C)cc3F)n2)C1 [Example 223, methyl 3-(5-(2-fluoro-5-(6-(2-hydroxyethoxy)pyrazolo[1,5-a]pyridine-3-carboxamido)-4-methylphenyl)-2H-tetrazol-2-yl)azetidine-1-carboxylate] | 23.4 nM |
| Cc1ccc(-c2nnn(CC3CC4(CC4)CO3)n2)cc1NC(=O)c1cnn2ccccc12 (stereo not drawn) [Example 10, N-(5-(2-((5-oxaspiro[2.4]heptan-6-yl)methyl)-2H-tetrazol-5-yl)-2-methylphenyl)pyrazolo[1,5-a]pyridine-3-carboxamide] | 3.8 nM |
| CNc1ccn2ncc(C(=O)Nc3cc(-c4nnn(C5CN(C(=O)OC)C5)n4)ccc3C)c2c1 [Example 133, methyl 3-(5-(4-methyl-3-(5-(methylamino)pyrazolo[1,5-a]pyridine-3-carboxamido)phenyl)-2H-tetrazol-2-yl)azetidine-1-carboxylate] | 34.5 nM |
| Cc1nnn(-c2ccc(C)c(NC(=O)c3cnn4ccc(Nc5cn[nH]c5)cc34)c2)n1 [Example 231, 5-((1H-pyrazol-4-yl)amino)-N-(2-methyl-5-(5-methyl-2H-tetrazol-2-yl)phenyl)pyrazolo[1,5-a]pyridine-3-carboxamide] | 3.6 nM |
| O=C(Nc1cc(-c2nnn(CC3CC(F)(F)C3)n2)ccc1Cl)c1cnn2ccccc12 [Example 19, N-(2-chloro-5-(2-((3,3-difluorocyclobutyl)methyl)-2H-tetrazol-5-yl)phenyl)pyrazolo[1,5-a]pyridine-3-carboxamide] | 7.5 nM |
| COC(=O)N1CC(n2nnc(-c3ccc(C)c(NC(=O)c4cnn5ccc(N6CCO[C@H](CO)C6)cc45)c3)n2)C1 [Example 68, methyl (S)-3-(5-(3-(5-(2-(hydroxymethyl)morpholino)pyrazolo[1,5-a]pyridine-3-carboxamido)-4-methylphenyl)-2H-tetrazol-2-yl)azetidine-1-carboxylate] | 61.3 nM |
| COC[C@@H](C)Nc1ccn2ncc(C(=O)Nc3cc(-c4nnn(C5CN(C(=O)OC)C5)n4)ccc3C)c2c1 [Example 135, methyl (R)-3-(5-(3-(5-((1-methoxypropan-2-yl)amino)pyrazolo[1,5-a]pyridine-3-carboxamido)-4-methylphenyl)-2H-tetrazol-2-yl)azetidine-1-carboxylate] | 53.8 nM |
| Cc1nn(C(CO)CO)c(C)c1-c1ccn2ncc(C(=O)Nc3cc(-c4nnn(C5CC5)n4)ccc3Cl)c2c1 [Example 276, N-(2-chloro-5-(2-cyclopropyl-2H-tetrazol-5-yl)phenyl)-5-(1-(1,3-dihydroxypropan-2-yl)-3,5-dimethyl-1H-pyrazol-4-yl)pyrazolo[1,5-a]pyridine-3-carboxamide] | 0.3 nM |
| [2H]C([2H])([2H])c1ccc(-c2nnn(C3CN(C(=O)OC)C3)n2)cc1NC(=O)c1cnn2ccc(NCCOC)cc12 [Example 118, methyl 3-(5-(3-(5-((2-methoxyethyl)amino)pyrazolo[1,5-a]pyridine-3-carboxamido)-4-(methyl-d3)phenyl)-2H-tetrazol-2-yl)azetidine-1-carboxylate] | 22.7 nM |
| COC(=O)N1CC(n2nnc(-c3ccc(C)c(NC(=O)c4cnn5ccc(NCC(F)F)cc45)c3)n2)C1 [Example 131, methyl 3-(5-(3-(5-((2,2-difluoroethyl)amino)pyrazolo[1,5-a]pyridine-3-carboxamido)-4-methylphenyl)-2H-tetrazol-2-yl)azetidine-1-carboxylate] | 49 nM |
| COC(=O)N1CC(n2nnc(-c3ccc(Cl)c(NC(=O)c4cnn5ccccc45)c3)n2)C1 [Example 192] | 10.6 nM |
| COCCNc1ccn2ncc(C(=O)Nc3cc(-c4nnn(CCCC(F)(F)F)n4)ccc3C)c2c1 [Example 116, 5-((2-methoxyethyl)amino)-N-(2-methyl-5-(2-(4,4,4-trifluorobutyl)-2H-tetrazol-5-yl)phenyl)pyrazolo[1,5-a]pyridine-3-carboxamide] | 3.2 nM |
| Cc1cc(F)c(-c2nnn(C3CC3)n2)cc1NC(=O)c1cnn2ccc(-c3cn(C[C@@H](C)O)nc3C)cc12 [Example 255, (R)-N-(5-(2-cyclopropyl-2H-tetrazol-5-yl)-4-fluoro-2-methylphenyl)-5-(1-(2-hydroxypropyl)-3-methyl-1H-pyrazol-4-yl)pyrazolo[1,5-a]pyridine-3-carboxamide] | 0.3 nM |
| COC(=O)N1CC(n2nnc(-c3ccc(C)c(NC(=O)c4cnn5cc(N6CCOCC6)ccc45)c3)n2)C1 [Example 159, methyl 3-(5-(4-methyl-3-(6-morpholinopyrazolo[1,5-a]pyridine-3-carboxamido)phenyl)-2H-tetrazol-2-yl)azetidine-1-carboxylate] | 20.1 nM |
| COC(=O)N1CC(n2nnc(-c3cc(NC(=O)c4cnn5cc(N6CCOCC6)ccc45)c(C)cc3F)n2)C1 [Example 224, methyl 3-(5-(2-fluoro-4-methyl-5-(6-morpholinopyrazolo[1,5-a]pyridine-3-carboxamido)phenyl)-2H-tetrazol-2-yl)azetidine-1-carboxylate] | 27 nM |
| Cn1nnc(-c2ccc(Cl)c(NC(=O)c3cnn4ccc(-c5cnn(CC(C)(C)O)c5)cc34)c2)n1 [Example 210, N-(2-chloro-5-(2-methyl-2H-tetrazol-5-yl)phenyl)-5-(1-(2-hydroxy-2-methylpropyl)-1H-pyrazol-4-yl)pyrazolo[1,5-a]pyridine-3-carboxamide] | 7.4 nM |
| Cc1ccc(-c2nnn(C3CC(F)(F)C3)n2)cc1NC(=O)c1cnn2ccc(N3CC(O)C3)cc12 [Example 60, N-(5-(2-(3,3-difluorocyclobutyl)-2H-tetrazol-5-yl)-2-methylphenyl)-5-(3-hydroxyazetidin-1-yl)pyrazolo[1,5-a]pyridine-3-carboxamide] | 1.8 nM |
| Cc1cc(F)c(-c2nnn(C3CC3)n2)cc1NC(=O)c1cnn2ccc(-c3cn(C[C@H](O)C(C)(C)O)nc3C3CC3)cc12 [Example 258, (S)-5-(3-cyclopropyl-1-(2,3-dihydroxy-3-methylbutyl)-1H-pyrazol-4-yl)-N-(5-(2-cyclopropyl-2H-tetrazol-5-yl)-4-fluoro-2-methylphenyl)pyrazolo[1,5-a]pyridine-3-carboxamide] | 0.4 nM |
